{"source": "patent US20100297109A1", "about": "“METHODS FOR INHIBITING FASCIN” (Cornell University, priority 2007, published 2010)", "key": {"[1]": {"test_system": "human breast tumor MDA-MB-231 cells", "experiment": "Wound-healing assay, serum-induced migration of MDA-MB-231 cells", "type": "cell-based", "settings": "20 μM", "description": "Cells. Mouse 4T1 mammary tumor cells and human MDA-MB-231 breast tumor cells were obtained from ATCC and have been described previously (Shan et al. 2005, Yang et al. 2005). 4T1 cells were cultured in RPMI 1640 medium supplemented with 10% FBS. MDA-MB-231 cells were cultured in DMEM supplemented with 10% FBS. Wound-healing assay. The wound-healing assay involves observing whether confluent cells can migrate across a scrape or wound in the cell layer. Cell migration assays were performed as described previously (Yang et al. 2005, Shan et al 2006). Tumor cells were plated in a 24-well plate coated with gelatin in standard media. After the cells grew to confluence, wounds were made in the confluent layer of cell using a sterile instrument such as a sterile pipette tip. The cells were washed with Phosphate Buffered Saline (PBS) or other sterile solutions and then the migration was induced by adding medium supplemented with 10% FBS. When the wound for the positive control closed, cells were fixed with 3.7% formaldehyde and stained with crystal violet staining solution. […] Photographs several random regions of the filter facing the second chamber are taken and the number of cells counted to calculate the average number of cells that had transmigrated."}, "fascin [2]": {"target": "T1, fascin (Homo sapiens, UniProt Q16658)", "experiment": "Chamber migration of fascin siRNA-treated 4T1 cells rescued with human fascin", "type": "cell-based", "set-up": "expressed in transfected cells; host or cells: 4T1 mouse mammary tumor cells treated with mouse fascin siRNA 2", "settings": "human fascin in fascin siRNA-treated 4T1 cells", "description": "(§1) Boyden Chamber Cell Migration Assay. Cells (5×10^4) suspended in starvation medium were added to the upper chamber of an insert (6.5 mm diameter, 8-micrometer pore size, Becton Dickenson), and the insert was placed in a 24-well dish containing starvation medium with or without 10% FBS (Yang et al. 2005, Shan et al. 2006). When used, inhibitors were added to both chambers. Migration assays were carried out for 4-6 hours and cells were fixed with 3.7% formaldehyde. Cells were stained with crystal violet staining solution, and cells on the upper side of the insert were removed with a cotton swab. Three randomly selected fields (10× objectives) on the lower side of the insert were photographed, and the migrated cells were counted. The migration was expressed as either the average number of migrated cells in a field or as percentage of migrated cells in positive control. Percentage was calculated with the formula P=100×(M−Mnc)/Mpc, where P is the percentage of migrated cells, M is the number of migrated cells, Mnc is the number of migrated cells in negative controls, and Mpc is the number of migrated cells in positive controls."}, "[3]": {"test_system": "human prostate tumor PC-3 cells", "experiment": "Cell migration assay, PC-3 cells", "type": "cell-based"}, "villin [4]": {"target": "T2, villin (Homo sapiens, UniProt P09327)", "T2 sequence (P09327 1-827)": "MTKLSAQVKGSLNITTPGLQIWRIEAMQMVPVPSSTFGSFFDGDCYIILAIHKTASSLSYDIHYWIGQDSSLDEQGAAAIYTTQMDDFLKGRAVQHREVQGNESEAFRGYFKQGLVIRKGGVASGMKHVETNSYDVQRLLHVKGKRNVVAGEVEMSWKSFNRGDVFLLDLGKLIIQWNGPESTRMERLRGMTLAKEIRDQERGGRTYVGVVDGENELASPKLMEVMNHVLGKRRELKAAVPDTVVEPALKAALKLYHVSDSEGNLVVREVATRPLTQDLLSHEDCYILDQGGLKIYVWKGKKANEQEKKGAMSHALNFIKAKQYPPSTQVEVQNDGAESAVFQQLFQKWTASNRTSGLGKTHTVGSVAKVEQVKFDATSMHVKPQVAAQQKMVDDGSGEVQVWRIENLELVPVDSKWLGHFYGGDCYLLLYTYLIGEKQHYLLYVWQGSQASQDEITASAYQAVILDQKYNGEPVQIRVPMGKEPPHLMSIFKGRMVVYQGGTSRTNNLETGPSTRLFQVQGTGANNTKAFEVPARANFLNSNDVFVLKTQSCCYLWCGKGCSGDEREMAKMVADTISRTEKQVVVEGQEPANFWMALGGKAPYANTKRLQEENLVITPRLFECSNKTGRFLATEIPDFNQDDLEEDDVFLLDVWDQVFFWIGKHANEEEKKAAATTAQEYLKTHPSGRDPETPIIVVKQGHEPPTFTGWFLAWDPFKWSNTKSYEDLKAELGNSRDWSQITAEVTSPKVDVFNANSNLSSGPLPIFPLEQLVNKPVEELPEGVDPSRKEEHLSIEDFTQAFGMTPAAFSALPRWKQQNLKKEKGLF", "experiment": "Migration of fascin siRNA-treated 4T1 cells rescued with villin", "type": "cell-based", "set-up": "expressed in transfected cells; host or cells: 4T1 mouse mammary tumor cells treated with fascin siRNA", "settings": "villin over-expression in fascin siRNA-treated 4T1 cells", "description": "as §1"}, "villin [5]": {"target": "T2, villin", "experiment": "Binding of macroketone to villin in vitro"}, "fascin [6]": {"target": "T1, fascin", "experiment": "F-actin binding assay, high-speed centrifugation", "set-up": "GST (N); made in house; host or cells: Escherichia coli BL21"}}}
{"smiles": "COC1C=CCCCCC(=O)CCC(C)=CC(C)C1O", "note": "(stereo not drawn) [macroketone, Migrastatin ketone]", "values": [{"measurement": "inhibition of serum-induced migration (wound-healing)", "setting": "[1]", "result": "inhibited the migration"}, {"measurement": "sensitivity of rescued migration", "setting": "fascin [2]", "result": "sensitive"}, {"measurement": "inhibition of migration", "setting": "[3]", "result": "inhibited the migration"}, {"measurement": "sensitivity of rescued migration", "setting": "villin [4]", "result": "insensitive"}, {"measurement": "binding to villin in vitro", "setting": "villin [5]", "result": "did not bind"}, {"measurement": "fascin pulled down by F-actin", "setting": "fascin [6]", "result": "significantly less fascin was pulled down"}]}
